Drawing on patent US9802918B2, “Pyridineamine compounds useful as Pim kinase inhibitors” (Incyte Corporation, priority 2015, dated 2017), this text covers IC50 for four compounds.

Common to all, as to assay type: biochemical
The target of one assay is Pim-1 (Homo sapiens (Human), UniProt P11309). The experiment in a line: Pim-1 kinase assay. The conditions noted are these: 1 mM ATP; read-out: Pim1 IC50. As to the method:
Supplementation of the STOP buffer with beads and stopping the reactions were done under reduced light. Prior to the stopping reactions STOP buffer with beads was preincubated for 1 h in the dark at room temperature. After stopping the reactions, plates were incubated for 1 h in the dark at room temperature before reading on a PHERAstar FS plate reader (BMG Labtech) under reduced light.

Another assay has as its target Pim-3 (Homo sapiens (Human), UniProt Q86V86). As to the kind of experiment: Pim-3 kinase assay. The conditions noted are these: 1 mM ATP; read-out: Pim3 IC50. The essentials: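 Human Pim-3 at 1.25 pM phosphorylated […] biotin-BAD peptide with 1 mM ATP for 1 h at 25° C, in pH 7.5 Tris buffer with 5 mM MgCl2 and 5 mM DTT. Reactions were stopped with EDTA buffer containing phospho-Bad (Ser112) antibody and AlphaScreen donor/acceptor beads. Plates were read after 1 h dark incubation at room temperature.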

The target of a further assay is Pim-2 (Homo sapiens (Human), UniProt Q9P1W9). The experiment in a line: Pim-2 kinase assay. The settings on record: 1 mM ATP; read-out: Pim2 IC50. The essentials: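 Pim-2 (1 nM) with fluorescein-CREBtide ([…]) and 1 mM ATP in Tris pH 7.5, MgCl2, DTT buffer, 2 h at 25 °C. Stopped with EDTA plus Tb-anti-CREB pSer133 antibody; phosphorylation read by TR-FRET after 30 min.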
Sequence of Pim-2 (Q9P1W9 whole entry): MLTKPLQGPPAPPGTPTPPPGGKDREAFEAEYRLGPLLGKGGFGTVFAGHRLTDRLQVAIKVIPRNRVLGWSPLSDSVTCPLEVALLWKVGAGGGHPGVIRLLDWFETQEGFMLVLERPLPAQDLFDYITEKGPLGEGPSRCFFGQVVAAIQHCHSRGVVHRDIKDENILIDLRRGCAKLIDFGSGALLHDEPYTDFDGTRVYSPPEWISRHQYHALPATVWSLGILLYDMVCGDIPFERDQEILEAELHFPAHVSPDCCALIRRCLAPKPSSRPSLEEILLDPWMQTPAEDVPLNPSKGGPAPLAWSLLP

Sequence of Pim-1 (P11309 whole entry): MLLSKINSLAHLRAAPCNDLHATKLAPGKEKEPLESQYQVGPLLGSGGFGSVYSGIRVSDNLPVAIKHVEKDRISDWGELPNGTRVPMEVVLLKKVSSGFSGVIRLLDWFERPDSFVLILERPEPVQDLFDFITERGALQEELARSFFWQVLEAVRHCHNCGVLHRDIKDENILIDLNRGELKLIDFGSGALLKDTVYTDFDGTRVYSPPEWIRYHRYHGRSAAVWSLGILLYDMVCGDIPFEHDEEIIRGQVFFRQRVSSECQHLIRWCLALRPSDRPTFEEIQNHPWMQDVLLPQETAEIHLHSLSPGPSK

`C[C@@H]1C[C@H](N)CN(c2ccncc2NCc2nc(-c3c(F)cccc3F)c(F)cc2N)C1` [Example 108, 2-[({4-[(3S,5R)-3-Amino-5-methylpiperidin-1-yl]pyridin-3-yl}amino)methyl]-6-(2,6-difluorophenyl)-5-fluoropyridin-3-amine]: the IC50 (usually the point on the concentration scale where inhibition reaches its midpoint) on Pim-1 is less than 10 nM; at Pim-3 it was not above 10 nM; on Pim-2 it was not above 100 nM.
The like results for `Nc1cc(F)c(-c2c(F)cccc2F)nc1CNc1cnccc1N1C[C@@H](N)C[C@@H](C(F)(F)F)C1` [Example 109, 2-[({4-[(3S,5R)-3-Amino-5-(trifluoromethyl)piperidin-1-yl]pyridin-3-yl}amino)methyl]-6-(2,6-difluorophenyl)-5-fluoropyridin-3-amine] were, in that order, less than 10 nM, not above 10 nM and not above 100 nM.
`C[C@@H]1C[C@H](N)CN(c2ccnc(F)c2NCc2ccc(F)c(-c3c(F)cccc3F)n2)C1` [Example 110, 4-[(3S,5R)-3-Amino-5-methylpiperidin-1-yl]-N-{[6-(2,6-difluorophenyl)-5-fluoropyridin-2-yl]methyl}-2-fluoropyridin-3-amine]: the IC50 on Pim-1 was less than 10 nM; on Pim-3, not above 10 nM; on Pim-2, not above 100 nM.
Consider `CC(Nc1cnccc1N1C[C@H](C)C[C@H](N)C1)c1ccc(F)c(-c2c(F)cccc2F)n1` (stereo partly drawn) [Example 111, 4-[(3S,5R)-3-Amino-5-methylpiperidin-1-yl]-N-{1-[6-(2,6-difluorophenyl)-5-fluoropyridin-2-yl]ethyl}pyridin-3-amine], for which the figures for the IC50 on Pim-1, at Pim-3 and at Pim-2 were less than 10 nM, not above 10 nM and not above 100 nM, respectively.
